The text below walks through data of ChEMBL document CHEMBL1140269, “Amino-substituted heterocycles as isosteres of trans-cinnamides: design and synthesis of heterocyclic biaryl sulfides as potent antagonists of LFA-1/ICAM-1 binding” (Bioorg Med Chem Lett, 2005).

SMILES strings stand for the structures. pEC50, pIC50: −log10 of the molar value.

One may read the pIC50 as the negative decadic logarithm of the IC50, by convention in mol/L. For orientation: pEC50 means the EC50 on a negative log10 scale, so that one unit is a factor of ten. The low end stands for a high EC50, the high end for a low EC50. The inhibition is the percentage by which the read-out fell short of the control. A lower inhibition goes with a response near the control.

The first experiment deals with T1, Intercellular adhesion molecule (ICAM-1), Integrin alpha-L/beta-2 (Homo sapiens, UniProt P05107+P20701). Description: Inhibitory concentration against integrin LFA-1/ICAM-1 binding complex. The class given is protein-complex assay.
T1 sequence (P20701 whole entry): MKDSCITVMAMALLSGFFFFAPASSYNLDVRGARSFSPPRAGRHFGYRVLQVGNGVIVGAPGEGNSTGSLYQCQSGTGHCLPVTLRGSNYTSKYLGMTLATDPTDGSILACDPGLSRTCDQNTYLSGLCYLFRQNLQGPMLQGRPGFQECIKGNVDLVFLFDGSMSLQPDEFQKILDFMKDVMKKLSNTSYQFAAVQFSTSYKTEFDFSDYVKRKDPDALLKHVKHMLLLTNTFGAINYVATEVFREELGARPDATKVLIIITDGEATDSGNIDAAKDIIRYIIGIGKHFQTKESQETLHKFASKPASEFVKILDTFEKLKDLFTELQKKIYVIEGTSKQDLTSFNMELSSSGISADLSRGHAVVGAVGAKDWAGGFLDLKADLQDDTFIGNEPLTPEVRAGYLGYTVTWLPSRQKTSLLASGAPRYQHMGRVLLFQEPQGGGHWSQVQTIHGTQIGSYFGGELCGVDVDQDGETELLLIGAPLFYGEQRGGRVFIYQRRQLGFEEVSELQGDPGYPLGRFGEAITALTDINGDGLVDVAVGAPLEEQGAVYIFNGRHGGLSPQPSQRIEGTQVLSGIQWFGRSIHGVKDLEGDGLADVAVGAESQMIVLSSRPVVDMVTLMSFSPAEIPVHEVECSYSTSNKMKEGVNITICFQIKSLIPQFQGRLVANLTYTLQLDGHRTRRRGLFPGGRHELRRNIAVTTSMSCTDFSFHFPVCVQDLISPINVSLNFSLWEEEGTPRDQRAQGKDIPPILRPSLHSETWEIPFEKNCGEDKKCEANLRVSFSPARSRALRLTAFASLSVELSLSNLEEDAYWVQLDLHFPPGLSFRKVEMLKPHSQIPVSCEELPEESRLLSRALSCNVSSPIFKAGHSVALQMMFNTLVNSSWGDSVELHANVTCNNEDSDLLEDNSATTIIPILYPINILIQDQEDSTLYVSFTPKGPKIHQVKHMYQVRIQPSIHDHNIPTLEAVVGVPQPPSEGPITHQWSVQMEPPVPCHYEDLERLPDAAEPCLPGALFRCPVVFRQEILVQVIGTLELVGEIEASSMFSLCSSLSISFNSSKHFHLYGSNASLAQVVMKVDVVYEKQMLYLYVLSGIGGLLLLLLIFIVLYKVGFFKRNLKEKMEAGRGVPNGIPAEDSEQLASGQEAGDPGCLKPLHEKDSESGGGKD
T1 sequence (P05362 whole entry, further chain): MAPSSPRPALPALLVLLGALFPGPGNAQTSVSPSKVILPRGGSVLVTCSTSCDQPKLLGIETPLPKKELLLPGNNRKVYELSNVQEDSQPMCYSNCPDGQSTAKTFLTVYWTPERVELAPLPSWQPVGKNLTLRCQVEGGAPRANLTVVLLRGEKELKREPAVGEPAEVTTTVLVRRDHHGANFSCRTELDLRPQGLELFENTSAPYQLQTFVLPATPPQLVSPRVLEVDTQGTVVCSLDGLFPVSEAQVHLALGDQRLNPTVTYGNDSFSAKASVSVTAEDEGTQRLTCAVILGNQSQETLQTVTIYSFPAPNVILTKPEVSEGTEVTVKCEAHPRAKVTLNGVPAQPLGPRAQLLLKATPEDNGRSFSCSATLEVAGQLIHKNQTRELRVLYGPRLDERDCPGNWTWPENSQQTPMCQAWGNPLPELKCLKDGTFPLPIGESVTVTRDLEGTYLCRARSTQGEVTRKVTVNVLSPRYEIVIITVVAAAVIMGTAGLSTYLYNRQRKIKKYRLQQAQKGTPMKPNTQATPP
T1 sequence (P05107 whole entry): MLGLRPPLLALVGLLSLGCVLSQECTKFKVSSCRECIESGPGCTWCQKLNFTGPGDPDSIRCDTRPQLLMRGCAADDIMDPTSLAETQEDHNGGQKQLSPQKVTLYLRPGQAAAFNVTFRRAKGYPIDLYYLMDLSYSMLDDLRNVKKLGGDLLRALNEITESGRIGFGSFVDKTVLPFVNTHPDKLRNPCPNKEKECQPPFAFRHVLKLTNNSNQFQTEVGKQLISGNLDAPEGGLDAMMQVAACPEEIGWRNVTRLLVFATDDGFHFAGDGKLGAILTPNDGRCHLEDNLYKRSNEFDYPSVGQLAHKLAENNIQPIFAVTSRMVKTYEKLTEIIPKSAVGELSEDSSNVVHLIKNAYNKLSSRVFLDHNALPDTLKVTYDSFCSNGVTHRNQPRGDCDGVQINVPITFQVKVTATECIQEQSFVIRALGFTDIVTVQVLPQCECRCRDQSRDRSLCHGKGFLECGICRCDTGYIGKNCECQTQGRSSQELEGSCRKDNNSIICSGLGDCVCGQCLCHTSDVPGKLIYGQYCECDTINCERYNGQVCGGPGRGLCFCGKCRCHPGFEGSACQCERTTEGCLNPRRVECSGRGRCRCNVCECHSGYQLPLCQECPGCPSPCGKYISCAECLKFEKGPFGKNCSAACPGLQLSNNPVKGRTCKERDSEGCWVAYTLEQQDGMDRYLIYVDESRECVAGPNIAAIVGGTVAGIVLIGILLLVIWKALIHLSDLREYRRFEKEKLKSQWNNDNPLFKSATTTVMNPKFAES
In the case of `CC(C)c1ccccc1Sc1ccc(-c2cc(N3CCCC(C(=O)O)C3)ncn2)cc1C(F)(F)F` (configuration not stated), the pIC50 is 6.92.

In turn, `CC(C)c1ccccc1Sc1ccc(-c2cc(N3CCCC(c4nn[nH]n4)C3)ncn2)cc1C(F)(F)F` (configuration not stated) had a pIC50 of 7.29.

Turning to `CC(=O)NC1CCN(c2cc(-c3ccc(Sc4ccccc4C(C)C)c(C(F)(F)F)c3)ncn2)C1` (configuration not stated), the negative logarithm of the IC50 (pIC50) was 6.66.

`CC(=O)N1CCCN(c2cc(-c3ccc(Sc4ccc5c(c4)OCCO5)c(C(F)(F)F)c3)ccn2)CC1` had a pIC50 of 6.44.

The next experiment deals with T1, Intercellular adhesion molecule (ICAM-1), Integrin alpha-L/beta-2. Description: Effective concentration to measure the adherence of LFA-1 expressing JY8 cells to immobilized ICAM-1 in cell-based adhesion assay.
`CC(C)c1ccccc1Sc1ccc(-c2cc(N3CCCC(C(=O)O)C3)ncn2)cc1C(F)(F)F` (configuration not stated) gave a pEC50 of 7.05.

`CC(C)c1ccccc1Sc1ccc(-c2cc(N3CCCC(c4nn[nH]n4)C3)ncn2)cc1C(F)(F)F` (configuration not stated) gave a pEC50 of 7.70. Against the preceding compound, the pEC50 is 0.65 log units higher.

Another experiment concerns the target T2, Intercellular adhesion molecule (ICAM-1), Integrin alpha-L/beta-2 (Homo sapiens) (UniProt P20701+P05362+P05107). Description: Inhibitory activity against ICAM-1/integrin LFA-1 binding complex at 1 uM concentration. Format: protein-complex assay.
Consider `CC(C)c1ccccc1Sc1ccc(-c2ccnc(N3CCCC(C)(C)C3)c2)cc1C(F)(F)F`, for which the inhibition is 22%.

Turning to `CC1CCN(c2cc(-c3ccc(Sc4ccccc4C(C)C)c(C(F)(F)F)c3)ccn2)CC1`, the inhibition is 40%.

`CC(C)c1ccccc1Sc1ccc(-c2ccnc(N3CCN(C4CCCCC4)CC3)c2)cc1C(F)(F)F` registered an inhibition of 21%.

For `CC(C)c1ccccc1Sc1ccc(-c2ccnc(N3CCN(c4ccccn4)CC3)c2)cc1C(F)(F)F`, the inhibition worked out at 40%.

As to `CCCC1CCN(c2cc(-c3ccc(Sc4ccccc4C(C)C)c(C(F)(F)F)c3)ccn2)CC1`, the inhibition was 8%.

Turning to `CC(C)c1ccccc1Sc1ccc(-c2ccnc(N3CCN(C)CC3)c2)cc1C(F)(F)F`, the inhibition was determined as 58%.

In turn, `CC(C)c1ccccc1Sc1ccc(-c2ccnc(N3CCCCCC3)c2)cc1C(F)(F)F` displayed an inhibition of 34%.

`Cc1ccc(C)c(N2CCN(c3cc(-c4ccc(Sc5ccccc5C(C)C)c(C(F)(F)F)c4)ccn3)CC2)c1` yielded an inhibition of 0%.

The compound `CCN1CCN(c2cc(-c3ccc(Sc4ccccc4C(C)C)c(C(F)(F)F)c3)ccn2)CC1` had an inhibition of 54%.

`CC(C)c1ccccc1Sc1ccc(-c2ccnc(N3CCN(c4cnccn4)CC3)c2)cc1C(F)(F)F` displayed an inhibition of 82%.

Another experiment deals with T2, Intercellular adhesion molecule (ICAM-1), Integrin alpha-L/beta-2 (Homo sapiens). Description: Inhibitory activity against ICAM-1/integrin LFA-1 binding complex at 20 uM concentration. Format: protein-complex assay.
Compound `CC(C)c1ccccc1Sc1ccc(-c2csc(N3CCCCC3)n2)cc1C(F)(F)F` gave an inhibition of 40%.
